Measurements as given in ChEMBL document CHEMBL1201862, “PubChem BioAssay data set” (2004).
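Interpolation was linear, between the two tested concentrations surrounding the appropriate level; five concentrations were tested over 48 hours in 96-well plates. GI50 marks 50% less growth.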 Active and inactive are the calls of the source. Rule as the data show it: active = GI50 up to about 1.1 µM and inactive = higher.

What was measured:
Assay in all cases: inhibition of tumour cell growth, NCI panel, 48 h
EKVX = test system: EKVX
HCT-15 = test system: HCT-15
LOX IMVI = test system: LOX IMVI
OVCAR-4 = test system: OVCAR-4
HOP-92 = test system: HOP-92
DMS-273 = test system: DMS-273
A498 = test system: A498
OVCAR-5 = test system: OVCAR-5
NCI-H23 = test system: NCI-H23
SK-MEL-28 = test system: SK-MEL-28
NCI/ADR-RES = test system: NCI/ADR-RES
UACC-257 = test system: UACC-257
SNB-19 = test system: SNB-19
MOLT-4 = test system: MOLT-4
COLO 205 = test system: COLO 205
DLD-1 = test system: DLD-1
786-0 = test system: 786-0
HCC 2998 = test system: HCC 2998
LXFL 529 = test system: LXFL 529
SF-539 = test system: SF-539
IGROV-1 = test system: IGROV-1
SF-295 = test system: SF-295
U-251 = test system: U-251
HOP-62 = test system: HOP-62
HT-29 = test system: HT-29
SF-268 = test system: SF-268
UACC-62 = test system: UACC-62
SK-MEL-2 = test system: SK-MEL-2
SW-620 = test system: SW-620
SN12C = test system: SN12C
M14 = test system: M14
SK-OV-3 = test system: SK-OV-3
A549 = test system: A549
OVCAR-8 = test system: OVCAR-8
OVCAR-3 = test system: OVCAR-3
NCI-H522 = test system: NCI-H522
KM-20L2 = test system: KM-20L2
HL-60 = test system: HL-60
NCI-H460 = test system: NCI-H460
HCT-116 = test system: HCT-116
SK-MEL-5 = test system: SK-MEL-5
KM12 = test system: KM12
RXF 393 = test system: RXF 393
RPMI-8226 = test system: RPMI-8226
MCF7 = test system: MCF7
CAKI-1 = test system: CAKI-1
PC-3 = test system: PC-3
BT-549 = test system: BT-549
MDA-MB-435 = test system: MDA-MB-435
SR = test system: SR
T47D = test system: T47D
UO-31 = test system: UO-31
TK-10 = test system: TK-10
MDA-MB-231 = test system: MDA-MB-231
SNB-75 = test system: SNB-75
NCI-H226 = test system: NCI-H226
MDA-N = test system: MDA-N
DU-145 = test system: DU-145
Hs-578T = test system: Hs-578T
K562 = test system: K562
ACHN = test system: ACHN
Malme-3M = test system: Malme-3M
CCRF-CEM = test system: CCRF-CEM

## COc1ccc(N[C@@H]2c3cc4c(cc3C(c3cc(OC)c(O)c(OC)c3)[C@H]3C(=O)OCC32)OCO4)cc1OC (some centres not stated)
EKVX
  GI50: > 32.7 µM (inactive)
HCT-15
  GI50: > 100 µM
LOX IMVI
  GI50: > 100 µM (inactive)
OVCAR-4
  GI50: 20.3 µM (inactive)
HOP-92
  GI50: > 100 µM (inactive)
DMS-273
  GI50: > 100 µM (inactive)
A498
  GI50: > 100 µM (inactive)
OVCAR-5
  GI50: > 19.9 µM (inactive)
NCI-H23
  GI50: 0.297 µM (active)
SK-MEL-28
  GI50: > 19.9 µM (inactive)
NCI/ADR-RES
  GI50: > 19.9 µM (inactive)
UACC-257
  GI50: 4.21 µM (inactive)

## COc1ccc(NCc2cc(OC)c(OC)c(OC)c2)cc1
SNB-19
  GI50: 1.19 µM (inactive)
MOLT-4
  GI50: 0.451 µM (active)
EKVX
  GI50: 4.97 µM (inactive)
COLO 205
  GI50: 0.233 µM (active)
DLD-1
  GI50: 0.345 µM (active)
HCT-15
  GI50: 0.217 µM
786-0
  GI50: 0.647 µM (active)
HCC 2998
  GI50: 0.277 µM (active)
LOX IMVI
  GI50: 0.519 µM (active)
LXFL 529
  GI50: 0.614 µM (active)
SF-539
  GI50: 0.34 µM (active)
OVCAR-4
  GI50: 21.4 µM (inactive)
IGROV-1
  GI50: 0.631 µM (active)
SF-295
  GI50: 0.242 µM (active)
U-251
  GI50: 0.439 µM (active)
HOP-92
  GI50: 2.15 µM (inactive)
HOP-62
  GI50: 0.378 µM (active)
HT-29
  GI50: 0.176 µM (active)
SF-268
  GI50: 1 µM (active)
UACC-62
  GI50: 0.271 µM (active)
SK-MEL-2
  GI50: 0.245 µM (active)
DMS-273
  GI50: 0.143 µM (active)
A498
  GI50: 0.543 µM (active)
SW-620
  GI50: 0.234 µM (active)
SN12C
  GI50: 0.53 µM (active)
M14
  GI50: 0.457 µM (active)
SK-OV-3
  GI50: 0.504 µM (active)
A549
  GI50: 0.578 µM (active)
OVCAR-8
  GI50: 0.851 µM (active)
OVCAR-3
  GI50: 0.34 µM (active)
NCI-H23
  GI50: 0.513 µM (active)
NCI-H522
  GI50: 0.372 µM (active)
KM-20L2
  GI50: 0.228 µM (active)
HL-60
  GI50: 0.115 µM (active)
SK-MEL-28
  GI50: 0.275 µM (active)
NCI-H460
  GI50: 0.359 µM (active)
HCT-116
  GI50: 0.367 µM (active)
SK-MEL-5
  GI50: 0.207 µM (active)
KM12
  GI50: 0.13 µM (active)
RXF 393
  GI50: 0.342 µM (active)
RPMI-8226
  GI50: 0.459 µM (active)

## CC(=O)Nc1cc([As](=O)(O)O)ccc1O [ACETARSONE]
SNB-19
  GI50: > 100 µM (inactive)
MOLT-4
  GI50: > 100 µM (inactive)
MCF7
  GI50: > 100 µM (inactive)
EKVX
  GI50: > 100 µM (inactive)
COLO 205
  GI50: > 100 µM (inactive)
CAKI-1
  GI50: > 100 µM (inactive)
HCT-15
  GI50: > 100 µM
786-0
  GI50: > 100 µM (inactive)
HCC 2998
  GI50: > 100 µM (inactive)
LOX IMVI
  GI50: > 100 µM (inactive)
SF-539
  GI50: > 100 µM (inactive)
OVCAR-4
  GI50: > 100 µM (inactive)
IGROV-1
  GI50: > 100 µM (inactive)
PC-3
  GI50: > 100 µM (inactive)
SF-295
  GI50: > 100 µM (inactive)
U-251
  GI50: > 100 µM (inactive)
HOP-92
  GI50: > 100 µM (inactive)
HOP-62
  GI50: > 100 µM (inactive)
HT-29
  GI50: > 100 µM (inactive)
BT-549
  GI50: > 100 µM (inactive)
SF-268
  GI50: > 100 µM (inactive)
UACC-62
  GI50: > 100 µM (inactive)
SK-MEL-2
  GI50: > 100 µM (inactive)
A498
  GI50: > 100 µM (inactive)
SW-620
  GI50: > 100 µM (inactive)
MDA-MB-435
  GI50: > 100 µM (inactive)
SR
  GI50: > 100 µM (inactive)
SN12C
  GI50: > 100 µM (inactive)
T47D
  GI50: > 100 µM (inactive)
UO-31
  GI50: > 100 µM (inactive)
M14
  GI50: > 100 µM (inactive)
TK-10
  GI50: > 100 µM (inactive)
SK-OV-3
  GI50: > 100 µM (inactive)
MDA-MB-231
  GI50: > 100 µM (inactive)
SNB-75
  GI50: > 100 µM (inactive)
NCI-H226
  GI50: > 100 µM (inactive)
MDA-N
  GI50: > 100 µM (inactive)
OVCAR-5
  GI50: > 100 µM (inactive)
A549
  GI50: > 100 µM (inactive)
DU-145
  GI50: > 100 µM (inactive)
OVCAR-8
  GI50: > 100 µM (inactive)
OVCAR-3
  GI50: > 100 µM (inactive)
Hs-578T
  GI50: > 100 µM (inactive)
NCI-H23
  GI50: > 100 µM (inactive)
NCI-H522
  GI50: > 100 µM (inactive)
HL-60
  GI50: > 100 µM (inactive)
K562
  GI50: > 100 µM (inactive)
SK-MEL-28
  GI50: > 100 µM (inactive)
NCI-H460
  GI50: > 100 µM (inactive)
ACHN
  GI50: > 100 µM (inactive)
HCT-116
  GI50: > 100 µM (inactive)
SK-MEL-5
  GI50: > 100 µM (inactive)
NCI/ADR-RES
  GI50: > 100 µM (inactive)
UACC-257
  GI50: > 100 µM (inactive)
KM12
  GI50: > 100 µM (inactive)
RXF 393
  GI50: > 100 µM (inactive)
RPMI-8226
  GI50: > 100 µM (inactive)
Malme-3M
  GI50: > 100 µM (inactive)
CCRF-CEM
  GI50: > 100 µM (inactive)
